The results in this text go back to ChEMBL document CHEMBL5244241, “Pyrimidine: A promising scaffold for optimization to develop the inhibitors of ABC transporters” (Eur J Med Chem, 2020).

Where only a bound is given, the exact number is not on record here.

The nature of series [1]: Oral bioavailability in BALB/c mouse at 50 mg/kg, […] measured upto 24 hrs relative to control. The format is ADME, organism-based. The following applies: in vivo.
The target of series [2] is T1, ATP-dependent translocase ABCB1 (Homo sapiens, UniProt P08183). The series is described as follows: Inhibition of ABCB1 (unknown origin).
T1 sequence (P08183 whole entry): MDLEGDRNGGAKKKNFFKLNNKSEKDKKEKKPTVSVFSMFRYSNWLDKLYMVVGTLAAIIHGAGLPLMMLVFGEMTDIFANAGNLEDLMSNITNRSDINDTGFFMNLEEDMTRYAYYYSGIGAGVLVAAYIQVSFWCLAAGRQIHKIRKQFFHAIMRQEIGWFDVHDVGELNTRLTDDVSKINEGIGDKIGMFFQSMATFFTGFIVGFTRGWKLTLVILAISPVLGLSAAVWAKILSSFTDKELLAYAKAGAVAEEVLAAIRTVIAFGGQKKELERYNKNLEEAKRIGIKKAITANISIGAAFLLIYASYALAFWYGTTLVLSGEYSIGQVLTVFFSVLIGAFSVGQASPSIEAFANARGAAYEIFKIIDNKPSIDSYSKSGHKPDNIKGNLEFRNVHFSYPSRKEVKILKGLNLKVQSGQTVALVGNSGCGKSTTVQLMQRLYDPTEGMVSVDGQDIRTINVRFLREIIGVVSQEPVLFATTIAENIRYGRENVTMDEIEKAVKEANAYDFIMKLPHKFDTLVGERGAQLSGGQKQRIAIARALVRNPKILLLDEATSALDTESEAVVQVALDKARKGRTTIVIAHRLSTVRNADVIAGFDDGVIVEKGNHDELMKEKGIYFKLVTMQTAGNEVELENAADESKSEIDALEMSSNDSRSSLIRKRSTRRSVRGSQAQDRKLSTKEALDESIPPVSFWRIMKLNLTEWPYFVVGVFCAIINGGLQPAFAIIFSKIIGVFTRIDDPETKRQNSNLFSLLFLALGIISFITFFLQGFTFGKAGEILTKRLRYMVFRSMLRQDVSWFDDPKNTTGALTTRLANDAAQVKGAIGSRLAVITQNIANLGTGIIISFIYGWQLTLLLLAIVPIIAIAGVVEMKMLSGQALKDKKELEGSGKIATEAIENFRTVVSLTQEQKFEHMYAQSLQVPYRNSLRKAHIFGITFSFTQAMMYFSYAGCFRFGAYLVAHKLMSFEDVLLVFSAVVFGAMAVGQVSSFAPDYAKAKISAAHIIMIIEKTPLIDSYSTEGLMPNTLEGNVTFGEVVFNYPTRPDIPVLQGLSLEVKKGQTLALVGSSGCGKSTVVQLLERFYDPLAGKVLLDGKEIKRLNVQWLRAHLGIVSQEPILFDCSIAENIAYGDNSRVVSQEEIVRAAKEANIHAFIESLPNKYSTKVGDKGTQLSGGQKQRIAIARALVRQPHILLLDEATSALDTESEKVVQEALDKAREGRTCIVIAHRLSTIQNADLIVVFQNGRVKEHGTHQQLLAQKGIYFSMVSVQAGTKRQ
The next series concerns K562/A02. The series is described as follows: Reversal of doxorubicin-induced multidrug resistance in human K562/A02 cells assessed as reversal fold of doxorubicin cytotoxicity by MTT assay. The format is functional.
Series [3] has as its target T1, ATP-dependent translocase ABCB1. The series is described as follows: Inhibition of P-gp (unknown origin) mediated ATP hydrolysis.

Broadly, the bioavailability is dose-corrected exposure relative to a reference, in per cent. A high value points to good availability. For orientation: IC50 means the concentration at which inhibition is half-maximal. High values mean weaker potency in that assay, low ones greater potency in that assay.

Regarding `NC(=O)c1c2n(c3c(N4CCN(CCc5ccc(F)c(F)c5)CC4)ncnc13)CCCC2`, the bioavailability in series [1] is greater than 50%.

Regarding `O=[N+]([O-])c1cc(Nc2nc(-c3ccccc3)nc3ccccc23)ccc1O`, in series [2], half-maximal inhibition (IC50) required 0.08 µM.

Take `CCCCC(CC(C)=O)n1cnc2c(N)ncnc21` (stereo unspecified): in the series on K562/A02, the Ratio is given as 1.09.

For `CCCCCC(CC(C)=O)n1cnc2c(N)ncnc21` (stereo unspecified), the Ratio in the series with K562/A02 amounted to 1.09.

In series [3], `Nc1ncnc2c1ncn2[C@@H]1O[C@H](COC(=O)c2ccc(S(=O)(=O)F)cc2)[C@@H](O)[C@H]1O` gave an IC50 of 210 µM.

For `CCCCCCCCCCCCCCCCC(=O)CC(CCCCCCCC)n1cnc2c(N)ncnc21` (stereo unspecified), in the series with K562/A02, the Ratio turned out to be 1.09.
